According to patent publication US20210238173A1, “MITOGEN-ACTIVATED PROTEIN KINASE KINASE 7 INHIBITORS” (Yeda Research and Development Co. Ltd., priority 2018, published 2021):

How the values were obtained:
p-cJun in HEK293 cells = test: p-cJun inhibition in HEK293 cells; format: cell-based; conditions: Homo sapiens
Method: (§1) HEK293, Beas2B and 3T3 cells were plated 24 hours before procedure on 384 well clear bottom black flat plates (Corning) pre-coated with Fibronectin (Sigma) diluted in PBS to a concentration of 5 μg/ml 45 minutes prior to cells introduction. Cells were plated using Multidrop™ Combi reagent dispenser (Thermo Fisher Scientific). Compound, reagents and antibody dispensing as well as washes were performed with a CyBio liquid handler (Analytik). Cells were pre-incubated with a small molecule or up to 1% DMSO for 2 h before fixation. HEK293, 3T3 or Beas2B cells were treated with 0.6M/0.2M/0.2M D-Sorbitol/PBS (Sigma) for 20/40/40 min. respectively, before fixation. Media was removed and wells were immediately fixed with 150 μl per well of 3.7% formaldehyde/PBS fixing solution for 20 min. Formaldehyde was then aspired and cells were permeabilized with 150 μl of 0.5% Triton x-100/PBS solution for 10 min. After aspiration cells were washed with ice-cold methanol and stored at −20° C., for 10 min. Methanol was aspired and cells were blocked with 150 μl blocking buffer (LICOR) for 90 min. Primary antibody Phospho-SAPK/JNK T183/Y185 (CST; 9251S) was diluted 1:1000 in blocking buffer and was applied 50 μl per well, except control wells to which only blocking buffer was applied, O.N. (16 h) at 4° C. with mild shaking. […] Wells signals were analyzed with Odyssey software. […]
(§2) To rapidly assess the cellular activity (EC50) with full dose response curves of the MKK7 covalent inhibitors, according to some embodiments of the present invention, an in-cell western assay was adapted to a 384 well plate format over traditional western blot, and monitored phospho-JNK (pJNK) levels in response to osmotic shock. […] The compound's activity was assessed by pre-treating cells with either compound or DMSO for 2 hours, followed by Sorbitol stimulation. The response of pJNK, and its substrates, pc-Jun and pATF2, was measured, as well as pP38, which is a substrate of MKK4 but not MKK7, and pERK in HEK293 cells, and the results are presented in Table 5 below.

pP38 in HEK293 cells = test: pP38 response in HEK293 cells; format: cell-based; conditions: at 10 μM
Method: (§3) To rapidly assess the cellular activity (EC50) with full dose response curves of the MKK7 covalent inhibitors, according to some embodiments of the present invention, an in-cell western assay was adapted to a 384 well plate format over traditional western blot, and monitored phospho-JNK (pJNK) levels in response to osmotic shock. We first characterized the dynamics of pJNK in response to sorbitol. Sufficient dynamic range for pJNK is achieved at 20 minutes in HEK293 cells and at 40 minutes in 3T3 and Beas2B cells. The compound's activity was assessed by pre-treating cells with either compound or DMSO for 2 hours, followed by Sorbitol stimulation. The response of pJNK, and its substrates, pc-Jun and pATF2, was measured, as well as pP38, which is a substrate of MKK4 but not MKK7, and pERK in HEK293 cells, and the results are presented in Table 5 below.
(§4) With similar values for pcJun (2.26 μM and 1.67 μM, respectively) and pATF2 (2.79 μM 5.19 μM, respectively).

MKK7 = target: T1, MKK7 (Homo sapiens, UniProt O14733); test: In vitro kinase activity assay for MKK7 (Nanosyn); format: biochemical; conditions: read-out: MKK7 IC50 in vitro
T1 construct: purchased Nanosyn (contract assay)
T1 sequence (O14733 1-419): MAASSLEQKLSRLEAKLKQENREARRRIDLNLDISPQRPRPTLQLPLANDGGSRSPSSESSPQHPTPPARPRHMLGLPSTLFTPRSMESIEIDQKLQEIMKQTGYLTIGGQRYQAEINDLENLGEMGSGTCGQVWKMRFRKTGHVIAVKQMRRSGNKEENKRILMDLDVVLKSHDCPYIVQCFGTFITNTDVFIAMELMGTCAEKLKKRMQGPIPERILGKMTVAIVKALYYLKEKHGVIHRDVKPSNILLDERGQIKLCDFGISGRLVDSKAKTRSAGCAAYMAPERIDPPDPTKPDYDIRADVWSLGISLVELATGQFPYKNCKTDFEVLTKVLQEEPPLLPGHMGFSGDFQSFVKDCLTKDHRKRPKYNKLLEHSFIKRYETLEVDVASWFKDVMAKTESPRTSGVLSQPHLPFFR
Method: Based on visual inspection of the top 500 predictions, 10 compounds were selected for synthesis and testing (see, Table 1). The “Docking rank” is given in its respective run, whereas four virtual libraries of acrylamides were docked separately, based on the amine precursor for the acrylamide (primary or secondary aliphatic amines, primary or secondary aromatic amines). In vitro kinase activity assay was carried out by Nanosyn, as described below.
(§5) In Vitro Activity Assays for MKK7 or MKK4 (Carried by Nanosyn):
(§6) Exemplary test compounds, according to some embodiments of the present invention, were diluted in DMSO to a final concentration that ranged from 10 μM to 0.0565 nM, while final concentration of DMSO in all assays was kept at 1%. Reference compound, Staurosporine, was tested in a similar manner. […] After incubation, activity of now activated JNK1 was tested in the presence of 30 μM ATP ATP for 17 h (MKK7) or 4 h (MKK4).

pJNK in 3T3 WT cells = test: In-cell western (ICW) pJNK inhibition in 3T3 WT; format: cell-based; conditions: 3T3 WT, sorbitol stimulation
Method: (§7) HEK293, Beas2B and 3T3 cells were plated 24 hours before procedure on 384 well clear bottom black flat plates (Corning) pre-coated with Fibronectin (Sigma) diluted in PBS to a concentration of 5 μg/ml 45 minutes prior to cells introduction. Cells were plated using Multidrop™ Combi reagent dispenser (Thermo Fisher Scientific). Compound, reagents and antibody dispensing as well as washes were performed with a CyBio liquid handler (Analytik). Cells were pre-incubated with a small molecule or up to 1% DMSO for 2 h before fixation. HEK293, 3T3 or Beas2B cells were treated with 0.6M/0.2M/0.2M D-Sorbitol/PBS (Sigma) for 20/40/40 min. respectively, before fixation. Media was removed and wells were immediately fixed with 150 μl per well of 3.7% formaldehyde/PBS fixing solution for 20 min. Formaldehyde was then aspired and cells were permeabilized with 150 μl of 0.5% Triton x-100/PBS solution for 10 min. After aspiration cells were washed with ice-cold methanol and stored at −20° C., for 10 min. Methanol was aspired and cells were blocked with 150 μl blocking buffer (LICOR) for 90 min. Primary antibody Phospho-SAPK/JNK T183/Y185 (CST; 9251S) was diluted 1:1000 in blocking buffer and was applied 50 μl per well, except control wells to which only blocking buffer was applied, O.N. (16 h) at 4° C. with mild shaking. Primary antibody was aspired, wells were washed with 150 μl 0.1% Tween20/PBS (Sigma) washing solution three times for 7 min. IRDye® 800CW Goat anti-Rabbit IgG Secondary antibody (LICOR) was then diluted 1:1200 in blocking buffer with 50 μl applied per well on control wells only (no CellTag control), then CellTag700 (1:2000) was added to the solution and 50 μl were added to all experiment wells, for 1 h at room temperature. Wells were aspired and washed again with 150 μl 0.1% Tween20/PBS (Sigma) washing solution three times for 7 min. plate was dried and scanned with Odyssey CLx imaging system at 700 nm and 800 nm (Licor). Wells signals were analyzed with Odyssey software. The signal was normalized by the CellTag700 signal.
as §3
Wildtype 3T3 cells, 3T3 MKK7 double knock-out (MKK7^−/−) cells and MKK4/7 double knockouts (MKK4/7^−/−) were used to validate on target activity of the MKK7 covalent inhibitors presented herein.

pERK in HEK293 cells = test: pERK response in HEK293 cells; format: cell-based; conditions: at 10 μM
Method: as §3, §4

pATF2 in HEK293 cells = test: pATF2 inhibition in HEK293 cells; format: cell-based; conditions: Homo sapiens
Method: as §1, §2

MKK4 = target: T2, MKK4 (Homo sapiens, UniProt P45985); test: In vitro activity assay for MKK4 (Nanosyn); format: biochemical
T2 construct: purchased Nanosyn (contract assay)
T2 sequence (P45985 1-399): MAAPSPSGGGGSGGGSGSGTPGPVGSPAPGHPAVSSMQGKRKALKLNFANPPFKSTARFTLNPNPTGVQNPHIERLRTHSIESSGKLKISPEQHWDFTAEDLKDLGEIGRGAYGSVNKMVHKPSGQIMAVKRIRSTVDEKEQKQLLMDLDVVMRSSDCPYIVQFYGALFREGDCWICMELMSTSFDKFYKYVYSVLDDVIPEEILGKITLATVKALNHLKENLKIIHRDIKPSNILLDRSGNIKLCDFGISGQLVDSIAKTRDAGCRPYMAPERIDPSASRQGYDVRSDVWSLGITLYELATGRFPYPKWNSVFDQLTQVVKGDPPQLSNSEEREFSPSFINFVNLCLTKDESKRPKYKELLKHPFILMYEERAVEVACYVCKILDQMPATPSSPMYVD
Method: as §5, §6

pJNK in HEK293 cells = test: In-cell western (ICW) pJNK inhibition in HEK293; format: cell-based; conditions: 2 h pre-incubation, sorbitol stimulation
Method: as §7, §3

[1] = Metabolic stability in human liver microsomes; format: in vitro ADME; conditions: for half-life: human, liver microsomes
Excerpt: (§8) A reference compound, REF1250, was used in this study: […]

[2] = Metabolic stability in monkey liver microsomes; format: in vitro ADME
Excerpt: as §8

[3] = Metabolic stability in dog liver microsomes; format: in vitro ADME; conditions: for half-life: dog, liver microsomes
Excerpt: as §8

[4] = Metabolic stability in rat liver microsomes; format: in vitro ADME; conditions: for half-life: rat, liver microsomes
Excerpt: as §8

[5] = Metabolic stability in mouse liver microsomes; format: in vitro ADME; conditions: for half-life: mouse, liver microsomes
Excerpt: as §8

JNK activation = test: KTR reporter live cell imaging of JNK activation; format: cell-based; conditions: Homo sapiens; HEK293 cells; read-out: EC50 of test and control compounds
Excerpt: As an orthogonal assay for the ICW we used a KTR reporter cell line for JNK activation via live cell imaging.

primary mouse B-cells = test: Primary B-cell activation (CD86+ FACS) in response to LPS; format: cell-based; conditions: Mus musculus, B-cell
Excerpt: Compounds Block Activation of Primary Mouse B-Cells:
JNK is known to mediate activation of B-cells in response to lypopolysacharide (LPS) through the TLR4 signaling pathway as well as in response to B-cell receptor activation (stimulated e.g. with an anti-IgM antibody). Primary B-cells were isolated from the spleen of mice and assessed for their B-cell activation, via FACS analysis of CD86+ expression, in response to LPS in the presence or absence of the covalent MKK7 enzyme inhibitors presented herein, as well as a positive control JNK inhibitor, JNK-IN-8.
At 10 μM and 2 hours pre-incubation before stimulation, GO80 was able to inhibit 60% of the CD86+ response.

[6] = target: T3, MKK7 in MDA-MB-231 lysate (Homo sapiens, UniProt O14733); test: Proteomic selectivity labeling in human cell lysate (MDA-MB-231); format: binding
T3 construct: endogenous in cells; host or cells: MDA-MB-231
T3 sequence (O14733 1-419): T1 sequence (O14733 1-419)

[7] = Homo sapiens, HEK293, HEK293, ICW

IC50 (MKK7) [µM] | IC50 (MKK4) [µM] | % remaining @ 40 min [1] [%] | half-life [1] [min] | % remaining @ 40 min [2] [%] | half-life [2] [min] | % remaining @ 40 min [3] [%] | half-life [3] [min] | % remaining @ 40 min [4] [%] | half-life [4] [min] | % remaining @ 40 min [5] [%] | half-life [5] [min] | EC50 (JNK activation) [µM] | Compound | EC50 (pJNK in HEK293 cells; [7]) [µM] | other results
0.014 | > 10 |  |  |  |  |  |  |  |  |  |  |  | C=CC(=O)Nc1cccc(-c2n[nH]c3cc([N+](=O)[O-])ccc23)c1 [GO37] | 0.73 | EC50 (p-cJun in HEK293 cells): 2.52 µM; effect on pP38 levels (pP38 in HEK293 cells): did not affect; EC50 (pJNK in 3T3 WT cells; ICW, 2 h pre-incubation): 4.2 µM; IC50 (pJNK in 3T3 WT cells): 5.33 µM; effect on pERK levels (pERK in HEK293 cells): did not affect; EC50 (pATF2 in HEK293 cells): 3.71 µM
0.01 | > 10 | 0 | < 5 | 0 | < 5 | 0 | < 5 | 2 | 6 | 0 | < 5 |  | C=CC(=O)Nc1cccc(-c2n[nH]c3cc(Br)ccc23)c1 [GO98] |  | 
0.002 | > 10 | 0 | < 5 | 0 | < 5 | 0 | < 5 | 6 | 10 | 0 | < 5 |  | C=CC(=O)Nc1cc(C#N)cc(-c2n[nH]c3cc(C)ccc23)c1 [GO108] | 3.7 | EC50 (pJNK in HEK293 cells; HEK293, ICW): 2.3 µM
 |  |  |  |  |  |  |  |  |  |  |  | > 10 | CCC(=O)Nc1cccc(-c2[nH]nc3ccccc23)c1 [PCM520] |  | 
 |  |  |  |  |  |  |  |  |  |  |  | > 10 | C=CC(=O)Nc1cccc(-c2nn(C)c3ccccc23)c1 [PCM521] |  | 
 |  |  |  |  |  |  |  |  |  |  |  |  | C#CCNC(=O)c1cc(NC(=O)C=C)cc(-c2n[nH]c3ccccc23)c1 [PCM548] |  | inhibition at 10 µM (primary mouse B-cells; 10 μM, 2 hours pre-incubation): ~90%; IC50 (primary mouse B-cells; full dose response): 5.3 µM; proteins labeled ([6]; at 2 μM): the only target; proteins labeled ([6]; at 5 μM): MKK7 seems to be the dominant target; proteins labeled ([6]; at 10 μM): labels many proteins
